Assay results from patent US10945992B1, “Dosage forms of rofecoxib and related methods” (Tremeau Pharmaceuticals, Inc., priority 2019, dated 2021).
Where two headings read alike, the source gives them in different places.

Assay: TRM-201-PK-102 single-dose four-period crossover pharmacokinetic study, fasted healthy subjects
Format: in vivo, human
Conditions: for geometric mean ratio AUC0-∞ to historical data for the 25 mg VIOXX product / geometric mean ratio Cmax to historical data for the 25 mg VIOXX product: sensitivity analysis; for AUC(0-inf) / Cmax: human, plasma, oral
Method: A Single-Dose, Open-Label, Phase 1, Four-Period Crossover Pharmacokinetic Study of TRM-201 (Rofecoxib) 12.5 mg, 17.5 mg, 20 mg and 25 mg Administered to Healthy Subjects in a Fasting State, with Comparison to Historical Pharmacokinetic Parameters of Previously Marketed Rofecoxib (“TRM-201-PK-102” or “102 PK Study”)
This was a single-center, open-label four-period crossover PK study of TRM-201. The study included 24 subjects who received TRM-201 as a single dose of 12.5 mg, 17.5 mg, 20 mg and 25 mg to assess the PK of TRM-201 in healthy volunteers under fasted conditions. Subjects were randomized to one of four treatment sequences. The PK data from the current study along with the data from the TRM-201-PK-101 study (Example 4) was used to compare to historical pharmacokinetic parameters of previously marketed rofecoxib, all in a fasted state.
In each of the four dosing periods, subjects fasted overnight for at least 10 hours before study drug dosing. While fasting, subjects had nothing to eat and only water to drink. Water was permitted as desired, except for the period between 1 hour before and 1 hour after study drug dosing (excepting as permitted for dosing). After the 2-hour PK blood sample, subjects were allowed one 250-mL cup of clear apple juice. After the 4-hour PK blood sample, subjects were served a light lunch. Following the light lunch, subjects received standardized meals according to the clinic's standard procedures that were scheduled at consistent times and at least 15 minutes before or 15 minutes after PK sampling time points. Blood was withdrawn for PK analysis at predefined time points. For each dosing period the last time point was 120 hours after dosing with study drug (Day 6). After the 120 hour PK sample, the EOP procedures was completed, subjects remained in-clinic for the in-between dose period day (Days 7, 14, and 21) and began the next dosing period starting with an overnight fast for at least 10 hours on Day −1 of the subsequent dosing period. Pharmacokinetic and safety endpoints were evaluated.
The study drug, TRM-201, was an immediate-release tablet that contained 12.5 mg rofecoxib, 17.5 mg rofecoxib, 20 mg rofecoxib or 25 mg rofecoxib. The 7.25-mm diameter tablets were off-white, round, and uncoated with no markings. TRM-201 tablets were for oral administration.
For each sample, approximately 3 mL of blood were drawn. The samples were obtained by a straight stick or via an in-dwelling intravenous (IV) catheter in a forearm vein. Additional details for the collection, processing, storage, and shipping of PK samples were provided in the study manual.
Pharmacokinetic samples will be analyzed using a validated assay for rofecoxib in human plasma. Assay results and validation details will be provided in a separate bioanalytical report. The following PK parameters for rofecoxib will be calculated as primary endpoints using standard noncompartmental methods: AUC0-∞ and Cmax. Secondary endpoints include Tmax, and t1/2. Additional PK parameters (e.g., CL/F, and Vd/F) will also be calculated using standard noncompartmental methods.
Individual plasma concentrations for rofecoxib and PK sampling time deviation data will be presented in a data listing. Plasma concentration data will be summarized by time point using the following descriptive statistics: number of subjects, arithmetic mean, SD, coefficient of variation (CV), geometric mean, natural-log-scale SD, geometric CV, median, minimum, and maximum. Individual plasma concentration versus actual time profiles were presented on both linear and semilogarithmic scales. Additionally, arithmetic mean concentration versus scheduled time profiles were presented on linear scales and geometric means on semilogarithmic scales.
The PK parameters of rofecoxib were analyzed based on the actual sampling times. […]

For `CS(=O)(=O)c1ccc(C2=C(c3ccccc3)C(=O)OC2)cc1` [TRM-201, 4-[4-(methylsulfonyl)phenyl]-3-phenyl-2(5H)-furanone], the arithmetic mean plasma concentration (17.5 mg, 15 minutes) was 2.42 ng/mL, the arithmetic mean plasma concentration (17.5 mg, 45 minutes) was 93 ng/mL and the “geometric mean ratio AUC0-∞ to historical data for the 25 mg VIOXX product” value (TRM-201 17.5 mg) was 0.819. The “geometric mean ratio Cmax to historical data for the 25 mg VIOXX product” value (TRM-201 17.5 mg) was 1.03, the “geometric mean ratio AUC0-∞ to historical data for the 25 mg VIOXX product” value (TRM-201 20 mg) was 0.934 and the “geometric mean ratio Cmax to historical data for the 25 mg VIOXX product” value (TRM-201 20 mg) was 1.19. It also gave an AUC(0-inf) (female, 12.5 mg, 102 study, females, read-out: arithmetic mean AUC0-∞) of 2240 ng·h/mL, a Cmax (female, 12.5 mg, 102 study, females, read-out: arithmetic mean Cmax) of 168 ng/mL and an AUC(0-inf) (female, 12.5 mg, 102 study, females, read-out: geometric mean AUC0-∞) of 2170 ng·h/mL. The Cmax (female, 12.5 mg, 102 study, females, read-out: geometric mean Cmax) was 160 ng/mL, the AUC(0-inf) (female, 17.5 mg, 102 study, females, read-out: arithmetic mean AUC0-∞) was 3650 ng·h/mL and the Cmax (female, 17.5 mg, 102 study, females, read-out: arithmetic mean Cmax) was 266 ng/mL. For the same compound, the AUC(0-inf) (female, 17.5 mg, 102 study, females, read-out: geometric mean AUC0-∞) was 3490 ng·h/mL, the Cmax (female, 17.5 mg, 102 study, females, read-out: geometric mean Cmax) was 251 ng/mL and the AUC(0-inf) (female, 20 mg, 102 study, females, read-out: arithmetic mean AUC0-∞) was 4270 ng·h/mL. For the same compound, the Cmax (female, 20 mg, 102 study, females, read-out: arithmetic mean Cmax) was 314 ng/mL, the AUC(0-inf) (female, 20 mg, 102 study, females, read-out: geometric mean AUC0-∞) was 4160 ng·h/mL and the Cmax (female, 20 mg, 102 study, females, read-out: geometric mean Cmax) was 293 ng/mL. It also gave an AUC(0-inf) (female, 25 mg, 102 study, females, read-out: arithmetic mean AUC0-∞) of 5090 ng·h/mL, a Cmax (female, 25 mg, 102 study, females, read-out: arithmetic mean Cmax) of 388 ng/mL and an AUC(0-inf) (12.5 mg, 102 study only, read-out: arithmetic mean AUC0-∞) of 2010 ng·h/mL. It also gave a Cmax (12.5 mg, 102 study only, read-out: arithmetic mean Cmax) of 151 ng/mL, an AUC(0-inf) (12.5 mg, 102 study only, read-out: geometric mean AUC0-∞) of 1880 ng·h/mL and a Cmax (12.5 mg, 102 study only, read-out: geometric mean Cmax) of 144 ng/mL. For the same compound, the AUC(0-inf) (12.5 mg, 102 study, 18-40 years, read-out: arithmetic mean AUC0-∞) was 1680 ng·h/mL, the Cmax (12.5 mg, 102 study, 18-40 years, read-out: arithmetic mean Cmax) was 164 ng/mL and the AUC(0-inf) (12.5 mg, 102 study, 18-40 years, read-out: geometric mean AUC0-∞) was 1570 ng·h/mL. It also gave a Cmax (12.5 mg, 102 study, 18-40 years, read-out: geometric mean Cmax) of 156 ng/mL, an AUC(0-inf) (12.5 mg, 102 study, 41-52 years, read-out: arithmetic mean AUC0-∞) of 2090 ng·h/mL and a Cmax (12.5 mg, 102 study, 41-52 years, read-out: arithmetic mean Cmax) of 140 ng/mL. For the same compound, the AUC(0-inf) (12.5 mg, 102 study, 41-52 years, read-out: geometric mean AUC0-∞) was 1880 ng·h/mL, the Cmax (12.5 mg, 102 study, 41-52 years, read-out: geometric mean Cmax) was 133 ng/mL and the AUC(0-inf) (12.5 mg, 102 study, 53-60 years, read-out: arithmetic mean AUC0-∞) was 2270 ng·h/mL. For the same compound, the Cmax (12.5 mg, 102 study, 53-60 years, read-out: arithmetic mean Cmax) was 150 ng/mL, the AUC(0-inf) (12.5 mg, 102 study, 53-60 years, read-out: geometric mean AUC0-∞) was 2240 ng·h/mL and the Cmax (12.5 mg, 102 study, 53-60 years, read-out: geometric mean Cmax) was 143 ng/mL. For the same compound, the AUC(0-inf) (12.5 mg, 102 study, Black or African-American subjects, read-out: arithmetic mean AUC0-∞) was 1660 ng·h/mL, the Cmax (12.5 mg, 102 study, Black or African-American subjects, read-out: arithmetic mean Cmax) was 143 ng/mL and the AUC(0-inf) (12.5 mg, 102 study, Black or African-American subjects, read-out: geometric mean AUC0-∞) was 1590 ng·h/mL. For the same compound, the Cmax (12.5 mg, 102 study, Black or African-American subjects, read-out: geometric mean Cmax) was 142 ng/mL, the AUC(0-inf) (12.5 mg, 102 study, Hispanic or Latino subjects, read-out: arithmetic mean AUC0-∞) was 2210 ng·h/mL and the Cmax (12.5 mg, 102 study, Hispanic or Latino subjects, read-out: arithmetic mean Cmax) was 157 ng/mL. For the same compound, the AUC(0-inf) (12.5 mg, 102 study, Hispanic or Latino subjects, read-out: geometric mean AUC0-∞) was 2090 ng·h/mL, the Cmax (12.5 mg, 102 study, Hispanic or Latino subjects, read-out: geometric mean Cmax) was 146 ng/mL and the AUC(0-inf) (12.5 mg, 102 study, White subjects, read-out: arithmetic mean AUC0-∞) was 2110 ng·h/mL. The Cmax (12.5 mg, 102 study, White subjects, read-out: arithmetic mean Cmax) was 153 ng/mL, the AUC(0-inf) (12.5 mg, 102 study, White subjects, read-out: geometric mean AUC0-∞) was 1960 ng·h/mL and the Cmax (12.5 mg, 102 study, White subjects, read-out: geometric mean Cmax) was 144 ng/mL. It also gave an AUC(0-inf) (12.5 mg, 102 study, body weight 47-70 kg, read-out: arithmetic mean AUC0-∞) of 1850 ng·h/mL, a Cmax (12.5 mg, 102 study, body weight 47-70 kg, read-out: arithmetic mean Cmax) of 175 ng/mL and an AUC(0-inf) (12.5 mg, 102 study, body weight 47-70 kg, read-out: geometric mean AUC0-∞) of 1690 ng·h/mL. The Cmax (12.5 mg, 102 study, body weight 47-70 kg, read-out: geometric mean Cmax) was 165 ng/mL, the AUC(0-inf) (12.5 mg, 102 study, body weight 70.1-77 kg, read-out: arithmetic mean AUC0-∞) was 2500 ng·h/mL and the Cmax (12.5 mg, 102 study, body weight 70.1-77 kg, read-out: arithmetic mean Cmax) was 155 ng/mL. It also gave an AUC(0-inf) (12.5 mg, 102 study, body weight 70.1-77 kg, read-out: geometric mean AUC0-∞) of 2420 ng·h/mL, a Cmax (12.5 mg, 102 study, body weight 70.1-77 kg, read-out: geometric mean Cmax) of 147 ng/mL and an AUC(0-inf) (12.5 mg, 102 study, body weight 77.1-90 kg, read-out: arithmetic mean AUC0-∞) of 1790 ng·h/mL.
